In general, inhibition refers to the change of the read-out against control, counted positive when it falls.

This is an account of results in ChEMBL document CHEMBL3627608, “Crystal structures of human RIP2 kinase catalytic domain complexed with ATP-competitive inhibitors: Foundations for understanding inhibitor selectivity” (Bioorg Med Chem, 2015).

The target of test [1] is MAP kinase-activated protein kinase 2 (Homo sapiens) (UniProt P49137). Briefly: Inhibition of MAPKAPK2 (unknown origin) at 10 uM after 120 mins P33 radiolabeled kinase activity assay.
In test [2] the target is T1, Serine/threonine-protein kinase 17A (Homo sapiens) (UniProt Q9UEE5).
T1 sequence (whole entry): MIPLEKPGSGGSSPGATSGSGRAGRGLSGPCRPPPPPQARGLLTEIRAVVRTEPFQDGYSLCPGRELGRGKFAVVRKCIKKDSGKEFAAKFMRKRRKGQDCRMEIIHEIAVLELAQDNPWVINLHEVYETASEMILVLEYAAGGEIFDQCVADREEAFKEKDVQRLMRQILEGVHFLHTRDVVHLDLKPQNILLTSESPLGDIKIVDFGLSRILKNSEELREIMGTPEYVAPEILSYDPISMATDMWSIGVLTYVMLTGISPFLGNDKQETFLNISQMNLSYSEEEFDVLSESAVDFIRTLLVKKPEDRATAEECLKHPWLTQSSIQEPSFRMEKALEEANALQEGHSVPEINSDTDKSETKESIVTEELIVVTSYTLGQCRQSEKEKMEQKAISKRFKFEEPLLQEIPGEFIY
Briefly: Inhibition of DRAK1 (unknown origin) at 10 uM after 120 mins P33 radiolabeled kinase activity assay.

Test [3] deals with Macrophage colony-stimulating factor 1 receptor (Homo sapiens) (UniProt P07333). Briefly: Inhibition of FMS (unknown origin) at 10 uM after 120 mins P33 radiolabeled kinase activity assay.
Macrophage colony-stimulating factor 1 receptor (Homo sapiens), sequence (P07333 whole entry): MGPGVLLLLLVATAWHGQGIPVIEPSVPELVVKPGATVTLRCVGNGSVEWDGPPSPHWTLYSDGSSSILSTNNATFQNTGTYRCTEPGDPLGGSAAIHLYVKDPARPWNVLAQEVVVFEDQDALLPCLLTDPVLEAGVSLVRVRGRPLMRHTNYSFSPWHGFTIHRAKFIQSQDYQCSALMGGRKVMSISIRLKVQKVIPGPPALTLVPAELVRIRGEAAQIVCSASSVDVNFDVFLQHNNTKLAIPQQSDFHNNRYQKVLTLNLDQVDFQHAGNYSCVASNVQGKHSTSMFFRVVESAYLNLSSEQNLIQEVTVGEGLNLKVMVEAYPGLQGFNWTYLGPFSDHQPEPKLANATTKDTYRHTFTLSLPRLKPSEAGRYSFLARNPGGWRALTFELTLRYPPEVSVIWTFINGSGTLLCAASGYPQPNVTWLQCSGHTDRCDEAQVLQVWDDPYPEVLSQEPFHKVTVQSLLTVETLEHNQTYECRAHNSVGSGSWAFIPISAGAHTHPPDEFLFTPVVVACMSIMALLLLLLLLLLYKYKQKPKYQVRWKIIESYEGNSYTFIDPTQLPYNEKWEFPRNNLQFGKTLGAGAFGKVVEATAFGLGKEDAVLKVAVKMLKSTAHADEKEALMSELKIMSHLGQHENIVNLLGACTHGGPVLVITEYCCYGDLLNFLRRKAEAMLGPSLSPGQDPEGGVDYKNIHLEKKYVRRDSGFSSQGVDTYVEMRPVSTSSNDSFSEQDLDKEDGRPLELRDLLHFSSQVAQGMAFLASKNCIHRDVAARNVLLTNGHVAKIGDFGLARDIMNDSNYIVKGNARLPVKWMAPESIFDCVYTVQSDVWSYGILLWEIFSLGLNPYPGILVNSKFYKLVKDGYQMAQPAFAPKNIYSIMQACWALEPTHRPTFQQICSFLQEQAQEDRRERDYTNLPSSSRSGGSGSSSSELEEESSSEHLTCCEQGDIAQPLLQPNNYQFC
Test [4] concerns the target Serine/threonine-protein kinase WNK2 (Homo sapiens) (UniProt Q9Y3S1). The test can be described thus: Inhibition of WNK2 (unknown origin) at 10 uM after 120 mins P33 radiolabeled kinase activity assay.
Test [5] concerns the target Ephrin type-A receptor 7 (Homo sapiens) (UniProt Q15375). The test can be described thus: Inhibition of EPHA7 (unknown origin) at 10 uM after 120 mins P33 radiolabeled kinase activity assay.
Test [6] addresses Mitogen-activated protein kinase 1 (Homo sapiens) (UniProt P28482). The test can be described thus: Inhibition of ERK2 (unknown origin) at 10 uM after 120 mins P33 radiolabeled kinase activity assay.
Test [7] deals with Phosphorylase b kinase gamma catalytic chain, skeletal muscle/heart isoform (Homo sapiens) (UniProt Q16816). The test can be described thus: Inhibition of PHKgamma1 (unknown origin) at 10 uM after 120 mins P33 radiolabeled kinase activity assay.
Test [8] has as its target T2, Mitogen-activated protein kinase 15 (Homo sapiens) (UniProt Q8TD08).
T2 sequence (whole entry): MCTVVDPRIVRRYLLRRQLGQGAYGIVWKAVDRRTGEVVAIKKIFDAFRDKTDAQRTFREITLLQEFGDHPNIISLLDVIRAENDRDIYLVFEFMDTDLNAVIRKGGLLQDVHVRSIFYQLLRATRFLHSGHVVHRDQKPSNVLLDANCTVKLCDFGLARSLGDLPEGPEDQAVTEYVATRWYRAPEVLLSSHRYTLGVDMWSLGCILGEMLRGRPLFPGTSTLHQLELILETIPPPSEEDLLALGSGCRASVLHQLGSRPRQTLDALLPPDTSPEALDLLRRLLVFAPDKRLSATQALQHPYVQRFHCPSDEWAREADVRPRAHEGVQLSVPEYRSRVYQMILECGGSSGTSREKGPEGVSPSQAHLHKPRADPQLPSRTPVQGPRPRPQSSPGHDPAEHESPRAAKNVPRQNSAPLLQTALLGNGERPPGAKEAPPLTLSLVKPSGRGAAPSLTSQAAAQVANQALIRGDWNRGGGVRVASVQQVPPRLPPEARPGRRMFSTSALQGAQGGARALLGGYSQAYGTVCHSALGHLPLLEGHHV
The test can be described thus: Inhibition of ERK7 (unknown origin) at 10 uM after 120 mins P33 radiolabeled kinase activity assay.

For test [9], the target named is T3, Dual specificity mitogen-activated protein kinase kinase 3 (Homo sapiens) (UniProt P46734).
T3 sequence (whole entry): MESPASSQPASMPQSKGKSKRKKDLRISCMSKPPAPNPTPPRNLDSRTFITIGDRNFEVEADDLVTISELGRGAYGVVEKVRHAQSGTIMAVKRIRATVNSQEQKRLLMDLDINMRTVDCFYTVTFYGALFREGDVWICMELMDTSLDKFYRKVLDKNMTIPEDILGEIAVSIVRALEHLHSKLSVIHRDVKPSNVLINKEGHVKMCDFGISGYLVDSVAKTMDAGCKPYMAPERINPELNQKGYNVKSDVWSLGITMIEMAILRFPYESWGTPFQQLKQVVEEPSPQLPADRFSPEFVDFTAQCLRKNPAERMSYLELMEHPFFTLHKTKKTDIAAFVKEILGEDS
Briefly: Inhibition of MEK3 (unknown origin) at 10 uM after 120 mins P33 radiolabeled kinase activity assay.

In test [10] the target is T4, Tyrosine-protein kinase ZAP-70 (Homo sapiens) (UniProt P43403).
T4 sequence (whole entry): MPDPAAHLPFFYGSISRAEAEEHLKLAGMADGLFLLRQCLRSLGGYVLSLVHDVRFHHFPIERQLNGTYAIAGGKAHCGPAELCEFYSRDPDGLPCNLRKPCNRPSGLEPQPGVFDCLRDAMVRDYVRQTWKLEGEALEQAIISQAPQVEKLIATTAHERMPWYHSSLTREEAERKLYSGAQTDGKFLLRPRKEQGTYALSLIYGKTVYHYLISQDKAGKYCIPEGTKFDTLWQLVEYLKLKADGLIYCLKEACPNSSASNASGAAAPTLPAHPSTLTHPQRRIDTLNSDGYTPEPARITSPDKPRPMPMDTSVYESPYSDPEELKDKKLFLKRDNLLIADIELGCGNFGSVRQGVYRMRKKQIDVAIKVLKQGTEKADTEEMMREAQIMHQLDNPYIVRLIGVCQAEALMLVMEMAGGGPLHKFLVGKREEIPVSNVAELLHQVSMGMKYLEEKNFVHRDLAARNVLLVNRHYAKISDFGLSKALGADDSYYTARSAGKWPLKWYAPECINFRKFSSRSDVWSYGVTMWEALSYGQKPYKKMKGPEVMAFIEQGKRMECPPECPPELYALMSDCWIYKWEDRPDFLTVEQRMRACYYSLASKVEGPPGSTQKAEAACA
Briefly: Inhibition of ZAP70 (unknown origin) at 10 uM after 120 mins P33 radiolabeled kinase activity assay.

For test [11], the target named is Tyrosine-protein kinase SYK (Homo sapiens) (UniProt P43405). Briefly: Inhibition of SYK (unknown origin) at 10 uM after 120 mins P33 radiolabeled kinase activity assay.
Test [12] concerns the target Citron Rho-interacting kinase (Homo sapiens) (UniProt O14578). The test can be described thus: Inhibition of STK21 (unknown origin) at 10 uM after 120 mins P33 radiolabeled kinase activity assay.
The target in test [13] is Serine/threonine-protein kinase SIK2 (Homo sapiens) (UniProt Q9H0K1). Briefly: Inhibition of SIK2 (unknown origin) at 10 uM after 120 mins P33 radiolabeled kinase activity assay.
Serine/threonine-protein kinase SIK2 (Homo sapiens), sequence (Q9H0K1 whole entry, looked up, canonical isoform): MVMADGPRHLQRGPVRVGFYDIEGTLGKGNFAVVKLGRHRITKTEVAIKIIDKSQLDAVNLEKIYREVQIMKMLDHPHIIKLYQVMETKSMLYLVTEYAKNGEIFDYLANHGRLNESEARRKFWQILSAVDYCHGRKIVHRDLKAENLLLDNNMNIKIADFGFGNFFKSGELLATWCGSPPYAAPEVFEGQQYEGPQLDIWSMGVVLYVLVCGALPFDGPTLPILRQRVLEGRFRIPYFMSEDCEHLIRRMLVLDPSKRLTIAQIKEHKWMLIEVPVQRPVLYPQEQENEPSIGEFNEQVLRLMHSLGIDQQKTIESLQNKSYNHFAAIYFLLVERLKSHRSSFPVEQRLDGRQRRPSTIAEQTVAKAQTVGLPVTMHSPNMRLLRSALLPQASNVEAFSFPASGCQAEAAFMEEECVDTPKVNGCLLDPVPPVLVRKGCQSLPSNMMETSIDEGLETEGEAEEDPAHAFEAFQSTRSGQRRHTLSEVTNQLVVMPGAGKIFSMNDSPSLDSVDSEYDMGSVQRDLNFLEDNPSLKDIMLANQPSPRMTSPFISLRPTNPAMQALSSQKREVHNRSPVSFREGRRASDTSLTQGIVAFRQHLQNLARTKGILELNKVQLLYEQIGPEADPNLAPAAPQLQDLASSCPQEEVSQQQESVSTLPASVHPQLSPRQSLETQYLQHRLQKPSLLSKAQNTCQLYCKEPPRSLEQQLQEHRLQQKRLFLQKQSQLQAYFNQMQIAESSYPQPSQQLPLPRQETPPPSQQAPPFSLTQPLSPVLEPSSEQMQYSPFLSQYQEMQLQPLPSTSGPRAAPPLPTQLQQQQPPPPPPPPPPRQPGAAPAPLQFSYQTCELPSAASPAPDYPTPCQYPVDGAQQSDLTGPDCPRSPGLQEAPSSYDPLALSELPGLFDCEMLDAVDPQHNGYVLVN
For test [14], the target named is Casein kinase I isoform epsilon (Homo sapiens) (UniProt P49674). Briefly: Inhibition of CK1epsilon (unknown origin) at 10 uM after 120 mins P33 radiolabeled kinase activity assay.
Test [15] concerns the target Ribosomal protein S6 kinase alpha-3 (Homo sapiens) (UniProt P51812). The test can be described thus: Inhibition of RSK2 (unknown origin) at 10 uM after 120 mins P33 radiolabeled kinase activity assay.

Ephrin type-A receptor 7 (Homo sapiens), sequence (Q15375 28-998 limits assumed): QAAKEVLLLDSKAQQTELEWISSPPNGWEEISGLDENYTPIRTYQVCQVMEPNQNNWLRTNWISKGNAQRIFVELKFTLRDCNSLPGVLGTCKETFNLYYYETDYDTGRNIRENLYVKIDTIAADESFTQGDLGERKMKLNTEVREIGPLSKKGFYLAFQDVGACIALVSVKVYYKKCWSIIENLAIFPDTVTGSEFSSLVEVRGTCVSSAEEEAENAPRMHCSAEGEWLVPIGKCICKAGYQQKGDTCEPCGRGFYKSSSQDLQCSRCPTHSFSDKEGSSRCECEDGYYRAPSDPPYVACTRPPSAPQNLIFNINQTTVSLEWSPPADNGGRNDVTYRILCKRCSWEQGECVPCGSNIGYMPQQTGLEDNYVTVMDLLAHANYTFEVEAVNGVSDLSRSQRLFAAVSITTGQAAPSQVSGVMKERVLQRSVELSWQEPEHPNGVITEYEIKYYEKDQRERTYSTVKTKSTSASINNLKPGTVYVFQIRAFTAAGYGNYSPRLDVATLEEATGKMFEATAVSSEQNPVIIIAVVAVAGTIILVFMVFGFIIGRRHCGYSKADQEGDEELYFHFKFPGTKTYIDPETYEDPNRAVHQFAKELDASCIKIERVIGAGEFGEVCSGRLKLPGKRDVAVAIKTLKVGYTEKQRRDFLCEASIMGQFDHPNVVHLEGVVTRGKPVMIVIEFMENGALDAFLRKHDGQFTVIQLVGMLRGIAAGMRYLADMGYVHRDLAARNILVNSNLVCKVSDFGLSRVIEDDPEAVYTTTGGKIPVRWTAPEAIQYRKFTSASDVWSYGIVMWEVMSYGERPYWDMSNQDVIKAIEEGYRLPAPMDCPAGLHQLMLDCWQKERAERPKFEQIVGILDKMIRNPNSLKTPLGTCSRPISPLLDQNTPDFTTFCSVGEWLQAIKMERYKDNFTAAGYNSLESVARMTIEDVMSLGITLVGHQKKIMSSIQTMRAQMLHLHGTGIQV
Citron Rho-interacting kinase (Homo sapiens), sequence (O14578 whole entry): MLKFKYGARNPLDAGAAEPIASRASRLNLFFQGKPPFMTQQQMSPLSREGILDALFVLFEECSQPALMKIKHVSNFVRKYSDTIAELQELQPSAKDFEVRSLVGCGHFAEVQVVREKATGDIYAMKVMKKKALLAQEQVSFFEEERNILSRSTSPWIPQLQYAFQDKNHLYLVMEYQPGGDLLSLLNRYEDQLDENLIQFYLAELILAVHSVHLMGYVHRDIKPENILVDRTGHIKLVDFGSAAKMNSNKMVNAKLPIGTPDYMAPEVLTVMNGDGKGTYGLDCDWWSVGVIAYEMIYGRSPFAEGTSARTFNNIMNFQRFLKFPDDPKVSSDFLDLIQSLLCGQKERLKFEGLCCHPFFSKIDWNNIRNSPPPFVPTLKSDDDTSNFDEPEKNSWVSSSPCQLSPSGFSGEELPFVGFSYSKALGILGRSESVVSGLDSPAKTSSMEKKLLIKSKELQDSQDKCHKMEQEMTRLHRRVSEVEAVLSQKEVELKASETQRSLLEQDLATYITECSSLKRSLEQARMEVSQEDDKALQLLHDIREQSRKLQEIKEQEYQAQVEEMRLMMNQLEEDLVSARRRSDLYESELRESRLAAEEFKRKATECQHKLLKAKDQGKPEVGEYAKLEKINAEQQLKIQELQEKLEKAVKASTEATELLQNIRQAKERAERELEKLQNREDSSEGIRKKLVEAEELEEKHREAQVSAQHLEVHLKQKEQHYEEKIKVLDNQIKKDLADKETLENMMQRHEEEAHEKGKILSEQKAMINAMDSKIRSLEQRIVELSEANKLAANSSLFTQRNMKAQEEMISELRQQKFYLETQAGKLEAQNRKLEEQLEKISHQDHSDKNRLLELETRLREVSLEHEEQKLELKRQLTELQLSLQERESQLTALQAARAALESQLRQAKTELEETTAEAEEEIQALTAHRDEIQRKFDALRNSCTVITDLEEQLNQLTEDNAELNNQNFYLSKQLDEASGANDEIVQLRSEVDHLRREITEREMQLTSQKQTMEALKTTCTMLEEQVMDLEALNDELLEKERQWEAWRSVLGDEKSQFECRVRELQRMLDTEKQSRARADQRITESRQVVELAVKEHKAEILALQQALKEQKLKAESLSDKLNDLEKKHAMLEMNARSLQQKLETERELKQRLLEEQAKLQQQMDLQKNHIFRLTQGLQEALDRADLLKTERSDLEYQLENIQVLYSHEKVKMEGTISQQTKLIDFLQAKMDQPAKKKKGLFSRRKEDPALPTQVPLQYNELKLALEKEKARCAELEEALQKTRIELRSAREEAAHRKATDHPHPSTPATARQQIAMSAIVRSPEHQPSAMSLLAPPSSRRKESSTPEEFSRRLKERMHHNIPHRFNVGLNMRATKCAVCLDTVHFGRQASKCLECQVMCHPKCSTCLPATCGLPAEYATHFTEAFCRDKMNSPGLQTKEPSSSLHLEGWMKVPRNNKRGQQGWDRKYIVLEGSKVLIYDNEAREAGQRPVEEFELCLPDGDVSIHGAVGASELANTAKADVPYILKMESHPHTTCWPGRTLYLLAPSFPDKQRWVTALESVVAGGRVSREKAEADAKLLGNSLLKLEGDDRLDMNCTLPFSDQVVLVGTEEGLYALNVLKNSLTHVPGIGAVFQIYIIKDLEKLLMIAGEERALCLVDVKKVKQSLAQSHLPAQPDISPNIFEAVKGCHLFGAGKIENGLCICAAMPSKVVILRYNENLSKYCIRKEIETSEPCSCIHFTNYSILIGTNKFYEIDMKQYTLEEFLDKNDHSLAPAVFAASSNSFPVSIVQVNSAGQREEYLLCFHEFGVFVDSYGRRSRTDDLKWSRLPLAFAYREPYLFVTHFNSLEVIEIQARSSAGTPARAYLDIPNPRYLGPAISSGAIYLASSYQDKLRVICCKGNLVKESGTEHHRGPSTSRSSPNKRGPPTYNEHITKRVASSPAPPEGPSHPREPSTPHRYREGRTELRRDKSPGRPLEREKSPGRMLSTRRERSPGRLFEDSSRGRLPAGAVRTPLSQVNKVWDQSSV

Turning to `CS(=O)(=O)c1cccc(Nc2nccc(-c3sc(N4CCOCC4)nc3-c3cccc(NS(=O)(=O)c4c(F)cccc4F)c3)n2)c1`, the inhibition in test [1] is 10.7%; in test [2], 1.47%; in [3], 43.9%; in [4], 43%; in [5], 47.5%; in test [6] it was -2.5%. The inhibition in test [7] is 8.44%; in test [8] it was 87%; in [9], 21.2%; in test [10], -0.68%; in [11], 21.4%; in test [12] it was -3.87%. Moreover, the inhibition came out at 97.2% in test [13], 36.8% in [14] and 66.8% in test [15].
In the case of `CC(C)(C)c1cc(NC(=O)Nc2ccc(Oc3ccncc3)cc2)no1`, the inhibition in test [1] was 11%; in test [2], 8.49%; in test [3] it was 98.2%; in test [4] it was 3.16%; in [5], 96.5%; in test [6] it was -0.63%. The inhibition in test [7] was 55.9%; in test [8], 99.8%; in [9], 3.51%; in test [10] it was -5.86%; in test [11], 6.66%; in test [12], -1.52%. Also, the inhibition came to 19.2% in test [13], 5.92% in [14] and 46.3% in test [15].
For `COCCNC(=O)c1ccc2c(c1)nc(-c1cnc(-c3ccc(Cl)cc3)[nH]1)n2CCOC`, the inhibition was determined as 11.5% in [1]; 5.43% in [2]; 5.32% in [3]; 3.46% in test [4]; 18.8% in test [5]; 1.34% in test [6]. Further, the inhibition in test [7] is 10.5%; in test [8], 0.89%; in [9], 0.04%; in test [10], 0.28%; in test [11], 5.53%; in [12] it was -5.27%. Moreover, the inhibition in test [13] was 17%; in test [14], 44.4%; in [15], 5.36%.
